Test results as given in the supplement of paper PMC10307832.

Assays:
Test in all cases: relative viability (nuclei count vs DMSO), 5 days (fraction); higher = more cells survive
HARA = test system: HARA
Outline: (§1)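 Lung cancer cell lines in 1536-well plates were dosed by pin tool the day after seeding, either with one drug alone or with a fixed anchor-drug dose plus five library-drug doses (not always all listed) in √10 steps. After 5 days, cells were fixed and their nuclei stained in one step (final 0.05% Triton X-100, 1% formaldehyde, 1 ug/ml Hoechst), then counted on 4× images. Relative viability is the nuclei count in treated wells divided by that in vehicle wells. Values are medians of duplicate plates.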

NCI-H838 = test system: NCI-H838
Outline: as §1

EKVX = test system: EKVX
Outline: as §1

NCI-H2170 = test system: NCI-H2170
Outline: as §1

CAL-12T = test system: CAL-12T
Outline: as §1

NCI-H2009 = test system: NCI-H2009
Outline: as §1

NCI-H661 = test system: NCI-H661
Outline: as §1

NCI-H1437 = test system: NCI-H1437
Outline: as §1

ABC-1 = test system: ABC-1
Outline: as §1

BEN = test system: BEN
Outline: as §1

NCI-H2023 = test system: NCI-H2023
Outline: as §1

PC-14 = test system: PC-14
Outline: as §1

COR-L23 = test system: COR-L23
Outline: as §1

NCI-H3122 = test system: NCI-H3122
Outline: as §1

201T = test system: 201T
Outline: as §1

COR-L 105 = test system: COR-L 105
Outline: as §1

NCI-H1650 = test system: NCI-H1650
Outline: as §1

NCI-H1666 = test system: NCI-H1666
Outline: as §1

LU99A = test system: LU99A
Outline: as §1

LK-2 = test system: LK-2
Outline: as §1

NCI-H727 = test system: NCI-H727
Outline: as §1

HCC-366 = test system: HCC-366
Outline: as §1

In the case of `C[C@@H]1CN(CC(=O)Nc2ccc3c(c2)Cc2cccc(-c4cc(=O)cc(N5CCOCC5)o4)c2S3)C[C@H](C)O1` + CS(=O)(=O)CCNCc1ccc(-c2ccc3ncnc(Nc4ccc(OCc5cccc(F)c5)c(Cl)c4)c3c2)o1 [Lapatinib] (partner 2 µM), the relative viability (HARA; first compound 0.04 µM) is reported as 0.732, the relative viability (HARA; first compound 0.1265 µM) is reported as 0.613 and the relative viability (HARA; first compound 0.4 µM) is reported as 0.796. It also gave a relative viability (HARA; first compound 4 µM) of 0.738, a relative viability (NCI-H838; first compound 0.04 µM) of 0.911 and a relative viability (NCI-H838; first compound 0.1265 µM) of 0.911. The relative viability (NCI-H838; first compound 0.4 µM) was 0.883, the relative viability (NCI-H838; first compound 4 µM) was 0.781 and the relative viability (EKVX; first compound 0.04 µM) was 0.271. The relative viability (EKVX; first compound 0.1265 µM) was 0.179, the relative viability (EKVX; first compound 0.4 µM) was 0.224 and the relative viability (EKVX; first compound 4 µM) was 0.211. For the same compound, the relative viability (NCI-H2170; first compound 0.1265 µM) was 0.251, the relative viability (NCI-H2170; first compound 0.4 µM) was 0.277 and the relative viability (NCI-H2170; first compound 4 µM) was 0.277. The relative viability (CAL-12T; first compound 0.04 µM) was 0.28, the relative viability (CAL-12T; first compound 0.1265 µM) was 0.69 and the relative viability (CAL-12T; first compound 0.4 µM) was 0.667. It also gave a relative viability (CAL-12T; first compound 4 µM) of 0.636, a relative viability (NCI-H2009; first compound 0.04 µM) of 0.486 and a relative viability (NCI-H2009; first compound 0.1265 µM) of 0.846. It also gave a relative viability (NCI-H2009; first compound 0.4 µM) of 0.964, a relative viability (NCI-H2009; first compound 4 µM) of 0.687 and a relative viability (NCI-H661; first compound 0.1265 µM) of 0.488. For the same compound, the relative viability (NCI-H661; first compound 0.4 µM) was 0.479, the relative viability (NCI-H661; first compound 4 µM) was 0.411 and the relative viability (NCI-H1437; first compound 0.04 µM) was 0.758. For the same compound, the relative viability (NCI-H1437; first compound 0.1265 µM) was 0.703, the relative viability (NCI-H1437; first compound 0.4 µM) was 0.834 and the relative viability (NCI-H1437; first compound 4 µM) was 0.702. For the same compound, the relative viability (ABC-1; first compound 0.04 µM) was 0.964, the relative viability (ABC-1; first compound 0.1265 µM) was 1.06 and the relative viability (ABC-1; first compound 0.4 µM) was 1.22. It also gave a relative viability (ABC-1; first compound 4 µM) of 1.21, a relative viability (BEN; first compound 0.04 µM) of 0.609 and a relative viability (BEN; first compound 0.1265 µM) of 0.666. For the same compound, the relative viability (BEN; first compound 0.4 µM) was 0.738, the relative viability (BEN; first compound 4 µM) was 0.745 and the relative viability (NCI-H2023; first compound 0.04 µM) was 0.176. It also gave a relative viability (NCI-H2023; first compound 0.1265 µM) of 0.793, a relative viability (NCI-H2023; first compound 0.4 µM) of 0.536 and a relative viability (NCI-H2023; first compound 4 µM) of 0.719. It also gave a relative viability (PC-14; first compound 0.04 µM) of 0.277, a relative viability (PC-14; first compound 0.1265 µM) of 0.298 and a relative viability (PC-14; first compound 0.4 µM) of 0.298. The relative viability (PC-14; first compound 4 µM) was 0.316, the relative viability (COR-L23; first compound 0.04 µM) was 0.893 and the relative viability (COR-L23; first compound 0.1265 µM) was 1.08. It also gave a relative viability (COR-L23; first compound 0.4 µM) of 1.12, a relative viability (COR-L23; first compound 4 µM) of 1.05 and a relative viability (NCI-H3122; first compound 0.04 µM) of 1.05. The relative viability (NCI-H3122; first compound 0.1265 µM) was 1.01, the relative viability (NCI-H3122; first compound 0.4 µM) was 1.07 and the relative viability (NCI-H3122; first compound 4 µM) was 0.988. For the same compound, the relative viability (201T; first compound 0.04 µM) was 1.07, the relative viability (201T; first compound 0.1265 µM) was 0.976 and the relative viability (201T; first compound 0.4 µM) was 1.08. The relative viability (201T; first compound 4 µM) was 0.988, the relative viability (COR-L 105; first compound 0.04 µM) was 0.28 and the relative viability (COR-L 105; first compound 0.1265 µM) was 0.302. The relative viability (COR-L 105; first compound 0.4 µM) was 0.381, the relative viability (COR-L 105; first compound 4 µM) was 0.359 and the relative viability (NCI-H1650; first compound 0.04 µM) was 0.287. For the same compound, the relative viability (NCI-H1650; first compound 0.1265 µM) was 0.812, the relative viability (NCI-H1650; first compound 0.4 µM) was 0.719 and the relative viability (NCI-H1650; first compound 4 µM) was 0.588. It also gave a relative viability (NCI-H1666; first compound 0.04 µM) of 0.745, a relative viability (NCI-H1666; first compound 0.1265 µM) of 0.667 and a relative viability (NCI-H1666; first compound 0.4 µM) of 0.665. The relative viability (NCI-H1666; first compound 4 µM) was 0.579, the relative viability (LU99A; first compound 0.04 µM) was 0.783 and the relative viability (LU99A; first compound 0.1265 µM) was 1.15. The relative viability (LU99A; first compound 0.4 µM) was 1.08, the relative viability (LU99A; first compound 4 µM) was 1.04 and the relative viability (LK-2; first compound 0.1265 µM) was 0.938. For the same compound, the relative viability (LK-2; first compound 0.4 µM) was 0.936, the relative viability (LK-2; first compound 4 µM) was 0.948 and the relative viability (NCI-H727; first compound 0.04 µM) was 0.9. For the same compound, the relative viability (NCI-H727; first compound 0.1265 µM) was 0.801, the relative viability (NCI-H727; first compound 0.4 µM) was 0.78 and the relative viability (NCI-H727; first compound 4 µM) was 0.752. It also gave a relative viability (HCC-366; first compound 0.04 µM) of 0.383, a relative viability (HCC-366; first compound 0.1265 µM) of 0.974 and a relative viability (HCC-366; first compound 0.4 µM) of 1.17. For the same compound, the relative viability (HCC-366; first compound 4 µM) was 0.824.

`CC(C)Oc1cc(Nc2nc(N[C@@H](C)c3ccc(F)cn3)ncc2Cl)n[nH]1` [AZ23] + CS(=O)(=O)CCNCc1ccc(-c2ccc3ncnc(Nc4ccc(OCc5cccc(F)c5)c(Cl)c4)c3c2)o1 [Lapatinib] (partner 2 µM) gave a relative viability (HARA; first compound 0.01 µM) of 0.862, a relative viability (HARA; first compound 0.03162 µM) of 0.708 and a relative viability (HARA; first compound 0.3162 µM) of 0.584. The relative viability (NCI-H838; first compound 0.01 µM) was 0.99, the relative viability (NCI-H838; first compound 0.03162 µM) was 1.06 and the relative viability (NCI-H838; first compound 0.3162 µM) was 0.908. The relative viability (EKVX; first compound 0.01 µM) was 0.188, the relative viability (EKVX; first compound 0.03162 µM) was 0.207 and the relative viability (EKVX; first compound 0.3162 µM) was 0.192. For the same compound, the relative viability (NCI-H2170; first compound 0.01 µM) was 0.267, the relative viability (NCI-H2170; first compound 0.03162 µM) was 0.283 and the relative viability (NCI-H2170; first compound 0.3162 µM) was 0.27. For the same compound, the relative viability (CAL-12T; first compound 0.03162 µM) was 0.701, the relative viability (CAL-12T; first compound 0.3162 µM) was 0.647 and the relative viability (NCI-H2009; first compound 0.01 µM) was 0.97. For the same compound, the relative viability (NCI-H2009; first compound 0.03162 µM) was 0.997, the relative viability (NCI-H2009; first compound 0.3162 µM) was 0.918 and the relative viability (NCI-H661; first compound 0.01 µM) was 0.432. For the same compound, the relative viability (NCI-H661; first compound 0.03162 µM) was 0.633, the relative viability (NCI-H661; first compound 0.3162 µM) was 0.545 and the relative viability (NCI-H1437; first compound 0.01 µM) was 0.729. The relative viability (NCI-H1437; first compound 0.03162 µM) was 0.975, the relative viability (NCI-H1437; first compound 0.3162 µM) was 0.957 and the relative viability (ABC-1; first compound 0.01 µM) was 1.15. It also gave a relative viability (ABC-1; first compound 0.03162 µM) of 1.24, a relative viability (ABC-1; first compound 0.3162 µM) of 1.17 and a relative viability (BEN; first compound 0.01 µM) of 0.807. For the same compound, the relative viability (BEN; first compound 0.03162 µM) was 0.906, the relative viability (BEN; first compound 0.3162 µM) was 0.708 and the relative viability (NCI-H2023; first compound 0.03162 µM) was 0.945. For the same compound, the relative viability (NCI-H2023; first compound 0.3162 µM) was 0.929, the relative viability (PC-14; first compound 0.01 µM) was 0.351 and the relative viability (PC-14; first compound 0.03162 µM) was 0.404. The relative viability (PC-14; first compound 0.3162 µM) was 0.348, the relative viability (COR-L23; first compound 0.01 µM) was 1.12 and the relative viability (COR-L23; first compound 0.03162 µM) was 1.1. It also gave a relative viability (COR-L23; first compound 0.3162 µM) of 1, a relative viability (NCI-H3122; first compound 0.01 µM) of 1.08 and a relative viability (NCI-H3122; first compound 0.03162 µM) of 1.01. It also gave a relative viability (NCI-H3122; first compound 0.3162 µM) of 1.04, a relative viability (201T; first compound 0.01 µM) of 1.03 and a relative viability (201T; first compound 0.03162 µM) of 1. For the same compound, the relative viability (201T; first compound 0.3162 µM) was 1.1, the relative viability (COR-L 105; first compound 0.01 µM) was 0.35 and the relative viability (COR-L 105; first compound 0.03162 µM) was 0.382. The relative viability (COR-L 105; first compound 0.3162 µM) was 0.373, the relative viability (NCI-H1650; first compound 0.01 µM) was 0.762 and the relative viability (NCI-H1650; first compound 0.03162 µM) was 0.922. The relative viability (NCI-H1650; first compound 0.3162 µM) was 0.54, the relative viability (NCI-H1666; first compound 0.01 µM) was 0.747 and the relative viability (NCI-H1666; first compound 0.03162 µM) was 0.565. For the same compound, the relative viability (NCI-H1666; first compound 0.3162 µM) was 0.591, the relative viability (LU99A; first compound 0.01 µM) was 1.2 and the relative viability (LU99A; first compound 0.03162 µM) was 1.08. For the same compound, the relative viability (LU99A; first compound 0.3162 µM) was 1.09, the relative viability (LK-2; first compound 0.01 µM) was 0.958 and the relative viability (LK-2; first compound 0.03162 µM) was 1.3. For the same compound, the relative viability (LK-2; first compound 0.3162 µM) was 0.685, the relative viability (NCI-H727; first compound 0.01 µM) was 0.788 and the relative viability (NCI-H727; first compound 0.03162 µM) was 0.945. For the same compound, the relative viability (NCI-H727; first compound 0.3162 µM) was 0.751, the relative viability (HCC-366; first compound 0.01 µM) was 0.905 and the relative viability (HCC-366; first compound 0.03162 µM) was 1.52. The relative viability (HCC-366; first compound 0.3162 µM) was 1.11.
